In the supplement of paper PMC11061612:

What was measured:
[1] = system: NCI-H2141 (Small Cell Lung Carcinoma); experiment: combination Emax (second highest fraction inhibited in the dose matrix, 72 h); higher = more inhibition; extreme values may be limits of the assay
Procedure, shortened: (§1)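 Cell lines in DMEM/F12 or RPMI with 10% FBS were plated in 1536-well plates, held 24 hours at 37°C, 5% CO2, then given two-drug dose matrices for 72 hours (DMSO typically 0.2%). Viability was read by CellTiter-Glo 2.0 luminescence and scaled as inhibition from 0 (vehicle wells) to 1 (blank wells). Combination Emax is the second-highest inhibition in the matrix; Bliss excess is observed combination effect minus expected EA + EB − EA·EB, EA and EB being single-agent effects.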

[2] = system: SISO (Cervical Carcinoma); experiment: as above
Procedure, shortened: as §1

[3] = system: NCI-H1693 (Lung Adenocarcinoma); experiment: as above
Procedure, shortened: as §1

[4] = system: A3-KAW (B-Cell Non-Hodgkin's Lymphoma); experiment: Bliss excess, mean over the matrix (fraction); higher = more synergy
Procedure, shortened: as §1

[5] = system: COR-L311 (Small Cell Lung Carcinoma); experiment: as above
Procedure, shortened: as §1

[6] = system: TT (Thyroid Gland Carcinoma); experiment: as above
Procedure, shortened: as §1

[7] = system: A549 (Lung Adenocarcinoma); experiment: as above
Procedure, shortened: as §1

Hs-445 (Non-Cancerous) = experiment: as above
Procedure, shortened: as §1

[8] = system: NCI-H1693 (Lung Adenocarcinoma); experiment: as above
Procedure, shortened: as §1

[9] = system: NCI-H2066 (Squamous Cell Lung Carcinoma); experiment: as above
Procedure, shortened: as §1

[10] = system: CCK-81 (Colorectal Carcinoma); experiment: as above
Procedure, shortened: as §1

[11] = system: VCaP (Prostate Carcinoma); experiment: as above
Procedure, shortened: as §1

[12] = system: PANC-10-05 (Pancreatic Carcinoma); experiment: as above
Procedure, shortened: as §1

[13] = system: ECC10 (Gastric Carcinoma); experiment: as above
Procedure, shortened: as §1

[14] = system: NCI-H1666 (Lung Adenocarcinoma); experiment: as above
Procedure, shortened: as §1

[15] = system: NCI-H64 (Small Cell Lung Carcinoma); experiment: as above
Procedure, shortened: as §1

[16] = system: TT2609-C02 (Thyroid Gland Carcinoma); experiment: as above
Procedure, shortened: as §1

NY (Osteosarcoma) = experiment: as above
Procedure, shortened: as §1

[17] = system: COLO-320-HSR (Colorectal Carcinoma); experiment: as above
Procedure, shortened: as §1

CAS-1 (Glioblastoma) = experiment: as above
Procedure, shortened: as §1
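For Bliss excess, mean over the matrix in this document: after 72 h of two-drug dosing.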

SMILES	combination Emax [1]	combination Emax [2]	combination Emax [3]	Bliss excess [4]	Bliss excess [5]	Bliss excess [6]	Bliss excess [7]	Bliss excess (Hs-445 (Non-Cancerous))	Bliss excess [8]	Bliss excess [9]	Bliss excess [10]	Bliss excess [11]	Bliss excess [12]	Bliss excess [13]	Bliss excess [14]	Bliss excess [15]	Bliss excess [16]	Bliss excess (NY (Osteosarcoma))	Bliss excess [17]	Bliss excess (CAS-1 (Glioblastoma))
CS(=O)(=O)CCNCc1ccc(-c2ccc3ncnc(Nc4ccc(OCc5cccc(F)c5)c(Cl)c4)c3c2)o1 [Lapatinib] + C[C@@H](Oc1cc(-c2cnn(C3CCNCC3)c2)cnc1N)c1c(Cl)ccc(F)c1Cl [Crizotinib] (first compound max 10 µM, 7x7, partner max 10 µM)	0.795	0.626	0.883	0.0316	-0.0024	-0.002	-0.0606	0.0147	-0.0069	-0.0066	-0.0255	-0.0653	-0.109	-0.0434	-0.0698	-0.0564	-0.023	-0.0118	-0.0416	-0.0634
CC(=O)c1c(C)c2cnc(Nc3ccc(N4CCNCC4)cn3)nc2n(C2CCCC2)c1=O [Palbociclib] + CC1(C)CCC(CN2CCN(c3ccc(C(=O)NS(=O)(=O)c4ccc(NCC5CCOCC5)c([N+](=O)[O-])c4)c(Oc4cnc5[nH]ccc5c4)c3)CC2)=C(c2ccc(Cl)cc2)C1 [Venetoclax] (first compound max 10 µM, 7x7, partner max 1 µM)	0.196	0.0637	0.33	-0.0332	-0.0186	0.0138	-0.0056	0.119	0.0079	-0.027	-0.0761	-0.0076	-0.107	0.0269	-0.069	-0.0185	0.0069	-0.0479	-0.0625	-0.009
CC(=O)c1c(C)c2cnc(Nc3ccc(N4CCNCC4)cn3)nc2n(C2CCCC2)c1=O [Palbociclib] + Cc1c2c(nn1C)CSCc1cc(n(C)n1)CSc1cc(c3ccccc3c1)OCCCc1c(C(=O)O)n(C)c3c-2c(Cl)ccc13 [AZD5991] (first compound max 10 µM, 7x7, partner max 1 µM)	0.309	0.127	0.431	-0.0158	-0.0139	0.0684	0.0338	-0.0598	-0.0168	-0.0361	0.0565	-0.0284	-0.0768	0.0435	-0.0198	-0.0049	-0.0822	-0.0358	-0.0746	0.0001
CC(=O)c1c(C)c2cnc(Nc3ccc(N4CCNCC4)cn3)nc2n(C2CCCC2)c1=O [Palbociclib] + Cn1cnc2c(F)c(Nc3ccc(Br)cc3Cl)c(C(=O)NOCCO)cc21 [Selumetinib] (first compound max 10 µM, 7x7, partner max 10 µM)	0.139	0.17	0.38	0.182	-0.0334	0.0418	-0.0413	-0.0852	-0.0306	-0.0344	0.0832	-0.012	-0.0409	-0.0111	-0.0183	-0.014	-0.0666	-0.0227	-0.0316	-0.018
COc1cccc(OCCCN)c1-c1cc(Nc2cnc(C#N)cn2)n[nH]1 [Prexasertib] + C=CCn1c(=O)c2cnc(Nc3ccc(N4CCN(C)CC4)cc3)nc2n1-c1cccc(C(C)(C)O)n1 [AZD1775] (first compound max 1 µM, partner max 1 µM)	0.588	0.891	0.461	0.0424	0.0559	-0.103	0.139	-0.0366	-0.0139	-0.0337	0.0523	0.022	-0.0342	0.115	-0.0629	0.0127	0.0015	-0.008	0.136	-0.0363
COc1cccc(OCCCN)c1-c1cc(Nc2cnc(C#N)cn2)n[nH]1 [Prexasertib] + CCc1c2c(nc3ccc(O)cc13)-c1cc3c(c(=O)n1C2)COC(=O)[C@]3(O)CC [SN-38] (first compound max 1 µM, 7x7, partner max 0.3 µM)	0.881	0.972	0.925	0.0247	-0.0058	-0.0758	-0.0361	-0.0189	0.0166	0.0285	-0.0968	-0.0541	-0.0372	0.0145	-0.0269	0.0021	-0.0467	-0.0647	0.115	0.0383
COc1cccc(OCCCN)c1-c1cc(Nc2cnc(C#N)cn2)n[nH]1 [Prexasertib] + CN(C)CCCOc1ccc(-c2ccc3ncc4c(c3c2)n(C2CCOCC2)c(=O)n4C)cn1 [AZD0156] (first compound max 1 µM, 7x7, partner max 1 µM)	0.568	0.745	0.398	0.0134	-0.0532	-0.004	-0.0276	-0.0286	-0.0349	-0.0379	-0.0133	-0.0463	-0.0435	0.0071	-0.0291	-0.0359	-0.0426	0.0007	0.0111	-0.0336
COc1cccc(OCCCN)c1-c1cc(Nc2cnc(C#N)cn2)n[nH]1 [Prexasertib] + C[C@@H]1COCCN1C2=NC(=NC(=C2)C3(CC3)[S@](=N)(=O)C)C4=C5C=CNC5=NC=C4 [AZD6738] (first compound max 1 µM, 7x7, partner max 10 µM)	0.573	0.798	0.389	0.0104	-0.0363	0.0244	0.0241	-0.0661	0.0816	-0.0154	-0.0277	-0.0267	0.0258	0.0929	0.0338	-0.0184	-0.0002	-0.0031	-0.0406	-0.0095
COc1cccc(OCCCN)c1-c1cc(Nc2cnc(C#N)cn2)n[nH]1 [Prexasertib] + Cc1cc2ncnn2cc1Nc1ncc2c(n1)n(C1CCOCC1)c(=O)n2C [AZD7648] (first compound max 1 µM, 7x7, partner max 10 µM)	0.57	0.759	0.483	0.0126	-0.0289	-0.0144	0.0532	-0.02	0.0337	0.0214	-0.0134	-0.0509	-0.038	0.006	-0.0176	-0.0242	-0.0157	-0.0328	-0.0037	-0.0053
COc1cccc(OCCCN)c1-c1cc(Nc2cnc(C#N)cn2)n[nH]1 [Prexasertib] + O=C(c1cc(Cc2n[nH]c(=O)c3ccccc23)ccc1F)N1CCN(C(=O)C2CC2)CC1 [Olaparib] (first compound max 1 µM, 7x7, partner max 10 µM)	0.617	0.803	0.357	-0.0146	-0.101	-0.141	-0.0109	-0.0358	-0.1	-0.0492	-0.12	-0.041	-0.0424	-0.0685	-0.0096	-0.0438	-0.0062	-0.0128	-0.131	-0.0979
COc1cc2c(cc1OCCCCCOc1cc3c(cc1OC)C(=O)N1C=C(C)C[C@H]1C=N3)N=C[C@@H]1CC(C)=CN1C2=O [SG3199] + O=C(c1cc(Cc2n[nH]c(=O)c3ccccc23)ccc1F)N1CCN(C(=O)C2CC2)CC1 [Olaparib] (first compound max 0.001 µM, 7x7, partner max 10 µM)	0.197	0.226	0.086	-0.0286	0.0282	-0.0645	-0.0226	-0.0116	-0.0209	-0.0457	0.0003	-0.0455	-0.0598	-0.0238	-0.0477	-0.0539	-0.0234	-0.0456	-0.0213	-0.0058
CCc1c2c(nc3ccc(O)cc13)-c1cc3c(c(=O)n1C2)COC(=O)[C@]3(O)CC [SN-38] + CN(C)CCCOc1ccc(-c2ccc3ncc4c(c3c2)n(C2CCOCC2)c(=O)n4C)cn1 [AZD0156] (first compound max 0.3 µM, 7x7, partner max 1 µM)	0.451	0.928	0.474	0.0988	-0.152	-0.119	0.0128	-0.018	-0.0099	-0.0517	0.135	-0.018	-0.0858	-0.143	0.0313	-0.0365	0.0068	-0.0288	0.0243	-0.0101
C[C@@H](c1ccc2nccn2c1)n1nnc2ncc(-c3cnn(C)c3)nc21 [Savolitinib] + CC1(C)CCC(CN2CCN(c3ccc(C(=O)NS(=O)(=O)c4ccc(NCC5CCOCC5)c([N+](=O)[O-])c4)c(Oc4cnc5[nH]ccc5c4)c3)CC2)=C(c2ccc(Cl)cc2)C1 [Venetoclax] (first compound max 1 µM, 7x7, partner max 1 µM)	0.198	0.0509	0.0814	-0.023	-0.022	-0.0724	-0.0378	-0.0642	-0.0639	-0.0524	-0.0615	-0.0325	-0.0986	0.0258	-0.0595	0.0032	-0.1	-0.0147	-0.0223	-0.055
